Experiments:
ITK = biological target: T1, ITK (Homo sapiens, UniProt Q08881); test: ITK kinase profiling (BTK protocol); assay type: biochemical; details: 0.3 μM compound
T1 construct: purchased Reaction Biology Corporation
T1 sequence (Q08881 1-620): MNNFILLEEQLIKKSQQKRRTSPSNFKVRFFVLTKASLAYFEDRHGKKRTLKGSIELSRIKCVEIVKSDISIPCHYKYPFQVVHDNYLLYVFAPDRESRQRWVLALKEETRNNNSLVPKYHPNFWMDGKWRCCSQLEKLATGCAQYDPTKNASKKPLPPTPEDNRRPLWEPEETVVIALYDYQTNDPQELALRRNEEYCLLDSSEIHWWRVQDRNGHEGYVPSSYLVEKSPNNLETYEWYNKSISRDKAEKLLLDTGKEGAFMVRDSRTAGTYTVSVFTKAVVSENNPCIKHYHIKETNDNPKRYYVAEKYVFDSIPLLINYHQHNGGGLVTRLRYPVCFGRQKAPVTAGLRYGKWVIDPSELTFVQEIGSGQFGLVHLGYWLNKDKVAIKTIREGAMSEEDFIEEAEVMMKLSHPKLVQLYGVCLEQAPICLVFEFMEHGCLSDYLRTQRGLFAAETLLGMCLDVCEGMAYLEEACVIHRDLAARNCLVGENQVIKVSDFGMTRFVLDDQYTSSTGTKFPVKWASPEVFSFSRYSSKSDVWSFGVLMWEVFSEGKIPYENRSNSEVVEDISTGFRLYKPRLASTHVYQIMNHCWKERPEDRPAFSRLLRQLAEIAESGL
Protocol: (§1) BTK assay: In vitro profiling protein kinases was performed using the “HotSpot” assay platform. Briefly, specific kinase/substrate pairs along with required cofactors were prepared in reaction buffer. Compounds were prepared as 10 mM stock solutions in DMSO. Compounds were delivered into the reaction, followed 15-20 minutes later by addition of a mixture of ATP (Sigma, St. Louis Mo.) and ^33P ATP (Perkin Elmer, Waltham Mass.) to a final concentration of 10 μM. […] IC50 values and curve fits were obtained using Prism (GraphPad Software). Buffer Conditions: 20 mM Hepes (pH 7.5), 10 mM MgCl2, 1 mM EGTA, 0.02% Brij35, 0.02 mg/mL BSA, 0.1 mM Na3VO4, 2 mM DTT, 1% DMSO.

CD69+B220+ cells = test: B cell activation assay (IgD-stimulated splenocytes, CD69+B220+ cells by FACS); assay type: cell-based; details: 100 nM compound, mouse splenocytes, IgD 3 μg/mL, 4 h
In short: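 Read-out is percent CD69+ among live B220+ cells by FACS after 4 h stimulation with 3 μg/mL IgD at 37 °C. Before stimulation, splenocytes from one female mouse (10^6 cells/mL) received 100 nM compound for 30 min.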

BTK = biological target: T2, BTK (Homo sapiens, UniProt Q06187); test: BTK kinase assay (HotSpot, 33P ATP); assay type: biochemical; details: for BTK @ 0.1 μM (% Inh): 0.1 μM compound; for IC50: 10 dose IC50, 10 μM ATP
T2 construct: purchased Reaction Biology Corporation
T2 sequence (Q06187 whole entry): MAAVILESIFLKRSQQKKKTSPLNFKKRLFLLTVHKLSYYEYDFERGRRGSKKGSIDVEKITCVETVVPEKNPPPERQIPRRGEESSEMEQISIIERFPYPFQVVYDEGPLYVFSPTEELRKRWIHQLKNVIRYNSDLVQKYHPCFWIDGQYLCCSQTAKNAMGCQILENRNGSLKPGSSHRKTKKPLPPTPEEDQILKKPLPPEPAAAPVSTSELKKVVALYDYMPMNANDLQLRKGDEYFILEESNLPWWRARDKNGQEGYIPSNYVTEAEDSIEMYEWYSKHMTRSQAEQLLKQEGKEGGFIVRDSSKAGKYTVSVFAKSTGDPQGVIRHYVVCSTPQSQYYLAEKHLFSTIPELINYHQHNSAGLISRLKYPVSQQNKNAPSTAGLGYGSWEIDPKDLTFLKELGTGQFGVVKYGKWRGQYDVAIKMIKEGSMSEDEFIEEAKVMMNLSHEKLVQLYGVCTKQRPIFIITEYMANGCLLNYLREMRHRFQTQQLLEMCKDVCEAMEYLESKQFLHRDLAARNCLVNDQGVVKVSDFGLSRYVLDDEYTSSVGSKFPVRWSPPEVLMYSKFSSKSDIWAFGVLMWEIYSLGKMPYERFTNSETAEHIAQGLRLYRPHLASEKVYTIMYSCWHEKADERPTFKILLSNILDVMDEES
In short: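 In 20 mM Hepes (pH 7.5) with 10 mM MgCl2, 1 mM EGTA, 0.1 mM Na3VO4, 2 mM DTT, 0.02% Brij35, 0.02 mg/mL BSA and 1% DMSO, kinase and substrate were exposed to ten compound doses for 15–20 min.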

TEC = biological target: T3, TEC (Homo sapiens, UniProt P42680); test: TEC kinase profiling (BTK protocol); assay type: biochemical; details: 0.3 μM compound
T3 construct: purchased Reaction Biology Corporation
T3 sequence (P42680 1-631): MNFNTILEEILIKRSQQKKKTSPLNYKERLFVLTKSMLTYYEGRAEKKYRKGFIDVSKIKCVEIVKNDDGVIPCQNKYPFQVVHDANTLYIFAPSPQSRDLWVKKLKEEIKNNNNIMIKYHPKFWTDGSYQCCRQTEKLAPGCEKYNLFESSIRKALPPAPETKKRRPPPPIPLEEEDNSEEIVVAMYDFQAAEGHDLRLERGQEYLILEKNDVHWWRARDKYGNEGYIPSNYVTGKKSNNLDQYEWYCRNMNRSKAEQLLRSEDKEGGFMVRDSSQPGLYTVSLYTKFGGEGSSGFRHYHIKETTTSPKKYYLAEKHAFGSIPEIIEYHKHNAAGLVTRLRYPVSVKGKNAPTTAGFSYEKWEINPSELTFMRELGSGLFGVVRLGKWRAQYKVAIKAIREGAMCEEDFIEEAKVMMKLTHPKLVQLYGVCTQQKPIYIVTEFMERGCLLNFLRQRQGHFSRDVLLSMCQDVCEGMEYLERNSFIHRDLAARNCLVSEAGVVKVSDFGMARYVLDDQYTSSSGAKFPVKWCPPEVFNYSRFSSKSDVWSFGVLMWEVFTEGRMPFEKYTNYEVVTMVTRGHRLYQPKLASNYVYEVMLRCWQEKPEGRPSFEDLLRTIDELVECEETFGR
Protocol: as §1

PI3Kα = biological target: T4, PI3Kα (Homo sapiens, UniProt P42336); test: PI3Kα isoform profiling (PI3Kδ protocol); assay type: biochemical; details: 0.3 μM compound
T4 construct: purchased Reaction Biology Corporation
T4 sequence (P42336 whole entry, canonical isoform): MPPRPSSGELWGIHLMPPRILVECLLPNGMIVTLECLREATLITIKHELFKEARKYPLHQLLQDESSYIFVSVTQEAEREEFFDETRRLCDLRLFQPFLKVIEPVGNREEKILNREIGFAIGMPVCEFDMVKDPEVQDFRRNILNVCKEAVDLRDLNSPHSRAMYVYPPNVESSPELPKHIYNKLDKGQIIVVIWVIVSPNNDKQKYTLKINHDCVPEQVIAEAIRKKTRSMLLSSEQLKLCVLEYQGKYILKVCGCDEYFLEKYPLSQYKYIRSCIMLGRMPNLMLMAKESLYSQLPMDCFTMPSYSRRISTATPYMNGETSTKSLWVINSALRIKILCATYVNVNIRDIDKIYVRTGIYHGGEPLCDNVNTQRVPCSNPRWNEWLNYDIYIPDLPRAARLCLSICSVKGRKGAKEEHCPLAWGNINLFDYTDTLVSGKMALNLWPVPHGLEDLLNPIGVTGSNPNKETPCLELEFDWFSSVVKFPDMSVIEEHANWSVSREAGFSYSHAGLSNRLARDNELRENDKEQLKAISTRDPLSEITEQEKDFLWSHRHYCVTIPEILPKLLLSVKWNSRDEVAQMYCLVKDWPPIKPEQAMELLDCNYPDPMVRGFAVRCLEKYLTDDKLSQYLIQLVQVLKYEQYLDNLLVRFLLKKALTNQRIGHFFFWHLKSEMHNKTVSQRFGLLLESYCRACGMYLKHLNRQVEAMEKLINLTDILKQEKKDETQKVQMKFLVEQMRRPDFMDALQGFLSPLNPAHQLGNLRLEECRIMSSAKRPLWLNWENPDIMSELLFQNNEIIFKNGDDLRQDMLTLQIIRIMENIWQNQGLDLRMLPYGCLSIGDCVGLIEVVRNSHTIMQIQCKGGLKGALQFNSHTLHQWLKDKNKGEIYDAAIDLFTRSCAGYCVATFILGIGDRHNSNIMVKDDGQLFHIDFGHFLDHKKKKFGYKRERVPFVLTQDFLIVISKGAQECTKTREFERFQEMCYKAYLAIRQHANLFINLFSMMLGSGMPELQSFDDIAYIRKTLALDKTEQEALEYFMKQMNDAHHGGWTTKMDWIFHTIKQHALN
T4 sequence (P27986 whole entry partner, canonical isoform): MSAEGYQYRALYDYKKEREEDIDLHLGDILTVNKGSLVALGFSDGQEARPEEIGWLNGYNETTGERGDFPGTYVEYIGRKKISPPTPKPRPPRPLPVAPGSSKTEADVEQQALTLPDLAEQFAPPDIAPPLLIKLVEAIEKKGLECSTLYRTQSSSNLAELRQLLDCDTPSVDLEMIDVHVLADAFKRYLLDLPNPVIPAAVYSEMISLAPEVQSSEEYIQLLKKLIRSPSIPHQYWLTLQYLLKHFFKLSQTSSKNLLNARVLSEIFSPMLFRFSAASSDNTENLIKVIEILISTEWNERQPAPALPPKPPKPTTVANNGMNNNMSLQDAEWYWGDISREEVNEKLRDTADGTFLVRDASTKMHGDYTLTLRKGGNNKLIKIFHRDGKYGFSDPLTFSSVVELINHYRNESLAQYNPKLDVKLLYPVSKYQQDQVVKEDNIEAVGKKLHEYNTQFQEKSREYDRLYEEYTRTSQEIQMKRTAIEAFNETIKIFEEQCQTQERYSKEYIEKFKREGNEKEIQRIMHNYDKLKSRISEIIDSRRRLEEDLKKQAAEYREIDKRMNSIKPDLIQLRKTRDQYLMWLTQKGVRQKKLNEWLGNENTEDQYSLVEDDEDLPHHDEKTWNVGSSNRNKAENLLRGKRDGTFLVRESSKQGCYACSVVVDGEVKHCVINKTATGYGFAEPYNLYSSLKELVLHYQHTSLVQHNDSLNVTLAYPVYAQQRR
Source text: PI3Kδ assay: The PIP3 product is detected by displacement of biotin-PIP3 from an energy transfer complex consisting of Europium labeled anti-GST monoclonal antibody, a GST-tagged pleckstrin homology (PH) domain, biotinylated PIP3 and Streptavidin-Allophycocyanin (APC). Excitation of Europium in the complex results in an energy transfer to the APC and a fluorescent emission at 665 nm. The PIP3 product formed by PI 3-Kinase(h) activity displaces biotin-PIP3 from the complex resulting in a loss of energy transfer and thus a decrease in signal. This is a 3-step reaction: First, the kinase reaction with PIP2 substrate is carried out in the presence of ATP (10 μM), and the reaction is quenched with stop Solution, and then finally detect by adding Detection Mixture followed by incubation (10 min). Reaction procedure: 1) Prepare substrate in freshly prepared Reaction Buffer. 2) Deliver kinase into the substrate solution and gently mix. 3) Deliver compounds in 100% DMSO (1 μM) into the kinase reaction mixture by Acoustic technology (Echo550; nanoliter range), incubate for 10 min at RT. 4) Deliver ATP into the reaction mixture to initiate the reaction. 5) Incubate for 30 min at 30° C. 6) Quench the reaction with Stop Solution. 7) Add Detection Mixture, and incubate for overnight. 8) Measure HTRF: Ex=320 nm, ratio of Em=615 nm and Em=665 nm. The emission ratio is converted into μM PIP3 production based on PIP3 standard curves. The nonlinear regression to obtain the standard curve and IC50 values are performed using Graphpad Prism software. Assay Buffer: HEPES 50 mM (pH7.0), NaN3 0.02%, BSA 0.01%, Orthovanadate 0.1 mM, 1% DMSO. Detection buffer: HEPES 10 mM (pH7.0), BSA 0.02%, KF 0.16 M, EDTA 4 mM. Substrate: 10 μM PIP2 substrate (PI(4,5)P2).
Compounds of the invention were profiled in a 10 dose IC50 panel against PI3Kα, PI3Kβ, and PI3Kγ kinases, provided by Reaction Biology Corporation, applied to the PI3Kδ protocol provided in Example B1.

PI3Kδ = biological target: T5, PI3Kδ (Homo sapiens, UniProt O00329); test: PI3Kδ kinase assay (HTRF, PIP3 detection); assay type: biochemical
T5 construct: purchased Reaction Biology Corporation
T5 sequence (O00329 whole entry): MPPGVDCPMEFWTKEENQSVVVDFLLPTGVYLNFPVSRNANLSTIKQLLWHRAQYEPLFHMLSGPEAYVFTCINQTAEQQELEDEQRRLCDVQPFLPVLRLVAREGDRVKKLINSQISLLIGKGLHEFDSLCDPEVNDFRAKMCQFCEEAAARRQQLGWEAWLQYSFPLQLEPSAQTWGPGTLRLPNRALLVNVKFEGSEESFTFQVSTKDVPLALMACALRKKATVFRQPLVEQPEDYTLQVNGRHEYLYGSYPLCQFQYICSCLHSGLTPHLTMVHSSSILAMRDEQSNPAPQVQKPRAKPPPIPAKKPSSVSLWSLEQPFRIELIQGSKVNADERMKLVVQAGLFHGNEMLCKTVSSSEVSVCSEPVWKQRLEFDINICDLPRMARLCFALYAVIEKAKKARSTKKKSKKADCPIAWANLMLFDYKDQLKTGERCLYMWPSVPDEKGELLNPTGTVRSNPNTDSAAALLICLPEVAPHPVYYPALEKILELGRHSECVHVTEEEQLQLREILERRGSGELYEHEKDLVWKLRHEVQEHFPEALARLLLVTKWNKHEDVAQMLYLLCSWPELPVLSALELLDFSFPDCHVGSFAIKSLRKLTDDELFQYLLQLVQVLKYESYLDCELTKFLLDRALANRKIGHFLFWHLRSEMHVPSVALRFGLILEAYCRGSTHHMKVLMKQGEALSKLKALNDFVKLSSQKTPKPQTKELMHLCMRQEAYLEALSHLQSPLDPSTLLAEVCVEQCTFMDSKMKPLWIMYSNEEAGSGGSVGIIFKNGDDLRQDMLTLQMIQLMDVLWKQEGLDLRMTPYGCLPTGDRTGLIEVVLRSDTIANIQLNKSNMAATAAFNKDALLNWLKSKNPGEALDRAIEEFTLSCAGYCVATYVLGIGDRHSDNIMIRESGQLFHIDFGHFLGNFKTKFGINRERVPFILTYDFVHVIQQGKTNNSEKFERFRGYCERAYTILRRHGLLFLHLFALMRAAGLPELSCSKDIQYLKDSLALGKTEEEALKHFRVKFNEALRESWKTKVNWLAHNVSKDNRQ
T5 sequence (P27986 whole entry partner): as the sequence (P27986 whole entry partner, canonical isoform) above
In short: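 PIP3 formation read by loss of energy transfer as it displaces biotin-PIP3 from a Eu anti-GST/GST-PH/streptavidin-APC complex, calibrated against PIP3 standards.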

ITK @ 0.3 μM (% Inh) (ITK) | BTK @ 0.1 μM (% Inh) (BTK; 10 μM ATP) | IC50 (BTK) | TEC @ 0.3 μM (% Inh) (TEC) | PI3Kα @ 0.3 μM (% Inh) (PI3Kα) | PI3Kδ @ 0.01 μM (% Inh) (PI3Kδ; 0.01 μM compound, 10 μM ATP) | PI3Kδ @ 0.1 μM (% Inh) (PI3Kδ; 0.1 μM compound, 10 μM ATP) | IC50 (PI3Kδ; 10 dose IC50, 10 μM ATP) | BTK @ 0.01 μM (% Inh) (BTK; 0.01 μM compound, 10 μM ATP) | SMILES | CD69 @ 100 nM (% Inh) (CD69+B220+ cells)
−0.36 % Inh | 41.16 % Inh | 164 nM | 11.45 % Inh | – | – | – | – | – | COc1ccc(-c2nn(C3CCc4ccccc4C3)c3ncnc(N)c23)cc1OC (racemic) [compound 17, 3-(3,4-dimethoxyphenyl)-1-(1,2,3,4-tetrahydronaphthalen-2-yl)-1H-pyrazolo[3,4-d]pyrimidin-4-amine] | 33.56 ± 13.70 (n = 5) % Inh
0.02 % Inh | 48.87 % Inh | 26.1 nM | 20.18 % Inh | 76.76 % Inh | – | – | – | – | Nc1ncnc2c1c(-c1ccc(Br)c(O)c1)nn2C1CCc2ccccc2C1 (centres unmarked) [compound 8, 5-(4-amino-1-(1,2,3,4-tetrahydronaphthalen-2-yl)-1H-pyrazolo[3,4-d]pyrimidin-3-yl)-2-bromophenol] | –
– | 43.43 % Inh | 154 nM | – | – | 35.56 % Inh | 59.95 % Inh | 34.7 nM | 12.89 % Inh | COc1cc(-c2nn(C3Cc4ccccc4C3)c3ncnc(N)c23)ccc1O [Compound No. 85, 4-[4-amino-1-(2,3-dihydro-1H-inden-2-yl)-1H-pyrazolo[3,4-d]pyrimidin-3-yl]-2-methoxyphenol] | 24.82 ± 9.20 (n = 3) % Inh

Reference: patent publication US20210317140A1, “Heterocyclic Compounds and Methods of Use” (MEDIVATION TECHNOLOGIES, INC, priority 2013, published 2021)
